Reference: patent US20120059021A1, “COMPOSITIONS AND METHODS FOR TREATING CANCER AND METHODS FOR PREDICTING A RESPONSE TO SUCH TREATMENTS” (UNIVERSITY OF WASHINGTON, priority 2008, published 2012)

How the values were obtained:
[1] = test system: human A375 melanoma cells; test: Resazurin-based assay for cell viability
MEL624 [2] = test: qPCR of endogenous Wnt target gene AXIN2, MEL624; format: cell-based, human; details: WNT3A CM, 2 μM PLX4720, 24 hours
Source text: RNA purification and qRT-PCR analysis. RNA was purified using the RNeasy kit following the manufacturer's protocol (Qiagen; Maryland, Md.). cDNA was synthesized using RevertAid™ M-MuLV Reverse Transcriptase (Fermentas; Ontario, CAN). Light Cycler FastStart DNA Master SYBR Green1 (Roche; Mannheim, Germany) was used for real-time PCR as previously described (53). Quantitative PCR results presented in the manuscript are averages of a minimum of three biologic replicates.

A2058 = test: Flow cytometry for active (cleaved) caspase-3, A2058; format: cell-based, human; details: 2 uM PLX4720, 24 hours, in % (unit assumed)
Experimental: (§1) Flow cytometry for Active Caspase-3. Cells were seeded in a 6-well dish at a density to achieve 90-100% confluence at harvest. 24 hours after seeding, cells were treated with the indicated conditions for the indicated amount of time. At the time of collection, supernatants were collected and pooled with trypsinized cells. Cells were fixed with 4% paraformaldehyde and permeabilized according to vendor's protocol for Cleaved Caspase-3 (Asp175) Antibody (AlexaFluor 488 Conjugate) (catalog #9669) (Cell Signaling, Beverly Mass.). The antibody was used at a final dilution of 1:100. Flow was performed on a BD FACSCanto H, and data analysed with FlowJo 8.8.6 (Tree Star) software. Experiments were performed with biological triplicates and data are representative of at least three independent experiments.
For experiments involving siRNAs, cells were reverse transfected with 20 nM siRNA in 6-well dishes in triplicate with RNAiMax according to manufacturer's protocol. 48 hours following transfection, cells were treated with the indicated conditions for 24 hours and then harvested for analysis. Cells were harvested, stained, and analyzed as described above.

MEL624 [3] = test: Flow cytometry for active (cleaved) caspase-3, MEL624; format: cell-based, human; details: WNT3A, 2 μM PLX4720, 24 hours
Experimental: as §1, with “experiments. For experiments involving siRNAs, cells were reverse transfected with 20 nM siRNA in 6-well dishes in triplicate with RNAiMax according to manufacturer's protocol. 48 hours following transfection, cells were treated with the indicated conditions for 24 hours and then harvested for analysis. Cells were harvested, stained, and analyzed as described above.” for “experiments.”

BAD and Bim (BCL2L11) = test: Immunoblot of BH3-only proteins BAD and Bim in A375 cells; format: cell-based, human
A375 cells = test: Immunoblot of apoptosis markers (cleaved caspase-3, cleaved PARP1) in A375 cells; format: cell-based, human
β-catenin = test: Cytosolic and nuclear β-catenin fractionation; format: cell-based, human; details: A375, 24 hours
Experimental: Cytosolic and Nuclear β-catenin Fractionation. Cells were plated in 100 mm dishes. 24 hours following plating, cells were treated with the indicated conditions for 24 hours. Cells were gently rinsed with PBS and harvested by scraping in 500 uL of hypotonic lysis buffer (50 mM HEPES pH 8.0, 1 mM EDTA, 1 mM DTT) containing protease and phosphatase inhibitors. Cells were swelled on ice for 30 minutes and then passed through a 27 gauge needle ten times and checked for complete lysis with a microscope. Lysates were centrifuged at 10,000×g for 20 minutes and supernatant was collected as the cytosolic fraction. Pelleted membranes were washed 5 times with hypotonic lysis buffer and then solubilized with solubilization buffer (50 mM Tris pH 8.0, 150 mM NaCl, 0.1% SDS, 0.5% sodium deoxycholate, 1% Triton X-100) containing protease and phosphatase inhibitors. After a 30 minute incubation on ice, lysates were centrifuged at 16,000×g for 20 minutes. The protein concentration of the cleared supernatant was determined by BCA analysis and an equal amount of protein and volume was then incubated with pre-washed Con A sepharose beads overnight at 4 degree C. Supernatant was collected as the nuclear fraction.

A375 melanoma cells = test: Isobologram analysis of cell viability (CellTiter-Glo); format: cell-based, human
Experimental: Isobologram Analysis of Cell Viability. A375 melanoma cells were seeded in 96-well plates at a concentration of 8,000 cells/well in 100 μl of growth media. 24 hours after plating, cells were treated with all combinations of 2-fold dilutions of WNT3A CM ranging from 20% to 0% and 2-fold dilutions of PLX4720 ranging from 5 μM-0 μM for 48 hours. 10 uL of CellTiter-Glo (Promega Madison, Wis.) was added to each well and total luminescence was measured on an Envision multilabel plate reader (Perkin Elmer Waltham, Mass.). Each condition within an experiment was assayed in triplicate wells and three independent experiments were performed.
Dose-effect analyses, including combination indices, dose reduction indices and median-effect analysis for FIGS. 9A-9C and FIGS. 11A-11C were performed using the method of Chou and Talay (55) via the CalcuSyn software suite (Biosoft, Cambridge UK), version 2.1.

## CCCS(=O)(=O)Nc1ccc(F)c(C(=O)c2c[nH]c3ncc(Cl)cc23)c1F [PLX4720, N-[3-[(5-Chloro-1H-pyrrolo[2,3-b]pyridin-3-yl)carbonyl]-2,4-difluorophenyl]-1-propanesulfonamide]
[1]
  cell viability / proliferation (resazurin): further decreases cell viability
MEL624 [2]
  SYNERGISTIC WNT ACTIVATION WITH PLX4720?: YES
A2058; AXIN1/2 siRNA, L CM
  cleaved caspase-3-positive cells: 12.67 ± 0.89
A2058; AXIN1/2 siRNA, W3A CM
  cleaved caspase-3-positive cells: 15.07 ± 1.6
A2058; Control siRNA, L CM
  cleaved caspase-3-positive cells: 3.39 ± 0.17
A2058; Control siRNA, W3A CM
  cleaved caspase-3-positive cells: 4.45 ± 0.41
MEL624 [3]
  SYNERGISTIC APOPTOSIS WITH WNT AND PLX4720?: YES
BAD and Bim (BCL2L11); A375, 2 μM PLX4720, 24 hours
  phosphorylation of BimEL: decreased phosphorylation of the largest Bim isoform, BimEL
BAD and Bim (BCL2L11); A375, 24 hours
  phosphorylation of Ser75 on BAD: decreased Ser75 phosphorylation
BAD and Bim (BCL2L11); A375, combination of WNT3A and PLX4720, 24 hours
  BimL and BimS levels: marked increase in BimL and BimS
A375 cells; A375, WNT3A and PLX4720 time course
  time at which cleaved caspase-3 was first detected: 12 to 16 h
A375 cells; A375, combined WNT3A and 2 μM PLX4720, 24 hours
  cleavage of the caspase-3 substrate PARP1: synergistic cleavage of the caspase-3 substrate, PARP1
A375 cells; A375, longer treatment with PLX4720, no exogenous WNT3A
  caspase3 activation: led to activation of caspase3
β-catenin
  steady-state levels of cytosolic or nuclear β-catenin: did not result in increased steady-state levels of cytosolic or nuclear β-catenin
A375 melanoma cells; combination of WNT3A CM and PLX4720, at 50% growth inhibition
  drug reduction indices: 8.1
A375 melanoma cells; combination of WNT3A and PLX4720, 48 hours
  combination indices (inhibition of cell growth): less than 1
